What was measured:
Holstein cows = assay: Average daily milk yield over sixty days after calving; type: in vivo; conditions: approximately 0.5 mg/kg SC on day of calving and day five post-calving, increased from 41.8 (placebo), p=0.052, FIG. 6
Experimental: One hundred twenty four pregnant, non-lactating Holstein cows were allocated to two treatment groups (placebo and COMPOUND (at approximately 0.5 mg/kg). In this Example COMPOUND is (3S)-3-[3-(1-Carboxy-1-methyl-ethoxy)-phenyl]-piperidine-1-carboxylic acid, 4-trifluoromethyl-benzyl ester. Animals were allowed to calve, treated by subcutaneous injection on the day of calving and on day five post-calving. Disease events and daily milk production were recorded for the following sixty days. The average daily milk yield in the treated cows was increased from 41.8 to 43.2 kg/day (p=0.052). Results are shown in FIG. 6.

mid-lactation cows = assay: Serum glucose levels, Example 1: PK/PD of two PPAR alpha agonists given IV and SC; type: in vivo; conditions: 0.5 mg/kg IV or SC, regardless of route of administration; blood samples up to 72 hours; FIG. 1
Experimental: Both compounds were administered by IV and SC routes, as outlined in the table below.
All animals were bled one day prior, and 15 minutes prior, to compound administration. Blood samples were collected from animals treated via IV at 5 and 10 minutes post compound administration. Blood samples were collected from all animals at 0.5, 1, 2, 4, 6, 24, 30, 48, 54, and 72 hours post compound administration. Samples were analyzed for glucose concentrations using a Dade Behring Dimension RXL serum chemistry analyzer. […] Other commercially available, standard apparatus for testing glucose levels can also be used.

Row | Compound | average daily milk yield (Holstein cows) | glucose concentration relative to baseline values (mid-lactation cows)
1 | CC(C)(Oc1cccc([C@@H]2CCCN(C(=O)OCc3ccc(C(F)(F)F)cc3)C2)c1)C(=O)O [Compound A, (3S)-3-[3-(1-Carboxy-1-methyl-ethoxy)-phenyl]-piperidine-1-carboxylic acid 4-trifluoromethyl-benzyl ester] | 43.2 kg/day | –
2 | Cc1ccc(-c2ccc(NS(=O)(=O)c3ccc(C)c(C(=O)O)c3)cc2)cc1 [Compound X, 2-Methyl-5-(4′-methyl-biphenyl-4-ylsulfamoyl)-benzoic acid] | – | increase in glucose

Source: patent publication US20070232647A1, “Use of Ppar Agonists to Treat Ruminants” (priority 2004, published 2007)
